The target in test [1] is T1, CBS^Δ516–525 (Homo sapiens, UniProt P35520, DEL516-525).
T1 construct: full-length with regulatory domain loop 516-525 deleted, E. coli Rosetta (DE3); dimer; no C-terminal His-tag
T1 sequence (P35520 with tags, fused parts or gaps DEL516-525): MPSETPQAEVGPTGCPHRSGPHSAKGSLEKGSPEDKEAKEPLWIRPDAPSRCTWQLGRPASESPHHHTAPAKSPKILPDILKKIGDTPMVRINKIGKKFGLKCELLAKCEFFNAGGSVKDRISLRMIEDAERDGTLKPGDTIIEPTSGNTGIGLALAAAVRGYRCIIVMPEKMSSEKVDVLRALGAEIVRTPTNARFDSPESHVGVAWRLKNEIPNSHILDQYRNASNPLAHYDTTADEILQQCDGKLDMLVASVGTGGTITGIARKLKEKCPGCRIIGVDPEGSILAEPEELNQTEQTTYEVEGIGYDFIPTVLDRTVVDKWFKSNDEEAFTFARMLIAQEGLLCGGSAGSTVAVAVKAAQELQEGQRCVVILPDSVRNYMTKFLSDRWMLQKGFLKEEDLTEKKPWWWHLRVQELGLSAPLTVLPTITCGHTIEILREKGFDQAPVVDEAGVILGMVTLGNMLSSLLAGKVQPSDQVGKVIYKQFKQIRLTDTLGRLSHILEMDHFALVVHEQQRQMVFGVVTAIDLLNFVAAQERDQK
Put plainly: AzMC fluorescence H2S production. The format is biochemical. As to conditions: read-out: Kact.

The target of test [2] is T1, CBS^Δ516–525. Put plainly: ITC. Type of test: binding. As to conditions: 25 °C, 20 mM HEPES pH 7.4; two-site fit.

This note sets out measurements from PMC10995199, “Architecture and regulation of filamentous human cystathionine beta-synthase” (Nature Communications, 2024).

On to `C[S+](CC[C@H](N)C(=O)O)C[C@H]1O[C@@H](n2cnc3c(N)ncnc32)[C@H](O)[C@@H]1O` (stereo partly drawn) [S-adenosyl-L-methionine], for which the EC50 at CBS^Δ516–525 [1] lay in the range of 26 to 36 µM. Besides, the Kd entry on CBS^Δ516–525 [2] was “also presented two events, though this construct is dimeric”.
